US10508120B2, “TYK2 inhibitors and uses thereof” (Nimbus Lakshmi, Inc., priority 2017, dated 2019)
pKd: −log10 of the molar value. Read-outs that look alike come from different tables or passages of the source.

Assays:
[1] = biological target: human TYK2 (JH2domain-pseudokinase) (Homo sapiens (Human), UniProt P29597); assay: TYK2 JH2 Domain Binding Assay (KINOMEscan)
Method in brief: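 Pseudokinase domain binding was measured by qPCR of tagged, bead-retained kinase after 1 h room-temperature competition, with 0.9% DMSO and compound up to 30,000 nM in 3-fold steps. Hill-equation Kd, duplicate.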

Tyk2 kinase domain (DH1) = Tyk2 kinase domain (DH1) (Homo sapiens (Human), UniProt P29597); assay: Tyk2 Radioactive Kinase Assay; type: biochemical; conditions: for inhibition at 10 µM: read-out: Tyk2 JH1% Inhibition @ 10 μM
Tyk2 kinase domain (DH1), sequence (P29597 897-1176): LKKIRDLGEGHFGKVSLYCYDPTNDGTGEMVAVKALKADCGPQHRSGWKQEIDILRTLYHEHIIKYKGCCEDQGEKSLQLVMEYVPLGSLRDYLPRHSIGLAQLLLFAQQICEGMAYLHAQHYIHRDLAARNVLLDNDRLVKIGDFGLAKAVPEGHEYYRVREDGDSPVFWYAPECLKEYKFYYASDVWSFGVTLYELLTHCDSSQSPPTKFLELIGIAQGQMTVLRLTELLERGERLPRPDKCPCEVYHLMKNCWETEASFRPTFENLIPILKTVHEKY
Method in brief: (§1)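 Single-point screen: 10 μM test compound, radioactive kinase read-out, percent inhibition reported for each kinase domain.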

JAK2 kinase domain (JH1) = JAK2 kinase domain (JH1) (Homo sapiens (Human), UniProt O60674); assay: JAK2 Radioactive Kinase Assay; type: biochemical; conditions: for inhibition at 10 µM: read-out: JAK2 JH1% Inhibition @ 10 μM
JAK2 kinase domain (JH1), sequence (O60674 849-1124): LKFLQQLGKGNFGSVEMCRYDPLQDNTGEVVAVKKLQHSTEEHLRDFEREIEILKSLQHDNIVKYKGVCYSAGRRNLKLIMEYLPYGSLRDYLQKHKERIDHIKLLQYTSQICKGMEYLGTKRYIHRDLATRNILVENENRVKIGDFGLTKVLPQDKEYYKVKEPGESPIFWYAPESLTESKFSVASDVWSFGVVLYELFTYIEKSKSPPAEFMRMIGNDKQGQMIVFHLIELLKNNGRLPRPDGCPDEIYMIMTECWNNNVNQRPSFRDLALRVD
Method in brief: as §1

human TYK2 (JH2domain-pseudokinase), sequence (P29597 556-888): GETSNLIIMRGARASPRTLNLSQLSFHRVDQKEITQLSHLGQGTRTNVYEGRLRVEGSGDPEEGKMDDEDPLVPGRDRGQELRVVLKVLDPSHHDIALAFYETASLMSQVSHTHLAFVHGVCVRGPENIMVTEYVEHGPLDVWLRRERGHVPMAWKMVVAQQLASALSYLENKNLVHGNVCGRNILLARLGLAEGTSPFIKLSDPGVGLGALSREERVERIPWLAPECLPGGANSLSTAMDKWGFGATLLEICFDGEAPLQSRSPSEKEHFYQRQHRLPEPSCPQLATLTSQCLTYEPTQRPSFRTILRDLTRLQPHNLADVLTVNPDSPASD

pKd [1] | inhibition at 10 µM (Tyk2 kinase domain (DH1); compound at 10 μM, ATP 10 μM) [%] | inhibition at 10 µM (JAK2 kinase domain (JH1); compound at 10 μM, ATP 10 μM) [%] | inhibition at 10 µM (Tyk2 kinase domain (DH1); 10 μM compound, 10 μM ATP) [%] | inhibition at 10 µM (JAK2 kinase domain (JH1); 10 μM compound, 10 μM ATP) [%] | Compound | Tyk2 JH1% Inhibition @ 10 μM (Tyk2 kinase domain (DH1); compound at 10 μM, ATP 10 μM) | JAK2 JH1% Inhibition @ 10 μM (JAK2 kinase domain (JH1); compound at 10 μM, ATP 10 μM)
9.00 to 9.70 | < 50 | < 50 |  |  | CNc1cc(Nc2cccn(-c3ccccn3)c2=O)nc2c(C(=O)NC[C@@H](C)CO)cnn12 [I-731] |  | 
9.00 to 9.70 | < 50 | < 50 |  |  | CNc1cc(-c2cn(CCN3CCOCC3)c3ncccc23)nc2c(C(=O)N[C@@H]3CC[C@@H]3O)cnn12 [I-678] |  | 
9.00 to 9.70 | < 50 | < 50 |  |  | CNc1cc(Nc2cc(Cl)cn(-c3cn(C4CC4)nc3C)c2=O)nc2c(C(N)=O)cnn12 [I-178] |  | 
> 9.70 | < 50 | < 50 |  |  | CNc1cc(Nc2cccnc2OC)nc2c(C(=O)N[C@@H]3CC[C@@H](O)C3)cnn12 [I-488] |  | 
9.00 to 9.70 |  |  |  |  | CNc1cc(Nc2cccn([C@H]3CCC[C@@H]3OC)c2=O)nc2c(C(=O)N[C@@H]3C[C@@H]3F)cnn12 [I-485] | A (percent inhibition at 10 μM lower than 50) | A (percent inhibition at 10 μM lower than 50)
< 8.00 |  |  | < 50 | < 50 | CNc1cc(Nc2cccc3ocnc23)nc2c(C(=O)N[C@@H]3COC[C@@H]3O)cnn12 [I-833] |  | 
> 9.70 | < 50 | < 50 |  |  | CNc1cc(Nc2cccc(N3CC(O)C3)n2)nc2c(C(=O)N[C@@H]3C[C@@H]3F)cnn12 [I-757] |  | 
9.00 to 9.70 | < 50 | < 50 |  |  | CNc1cc(Nc2cccn(-c3ccc(F)cn3)c2=O)nc2c(C(N)=O)cnn12 [I-48] |  | 
9.00 to 9.70 | < 50 | < 50 |  |  | CNc1cc(Nc2cc(Cl)cn(-c3cnn(C4CC4)c3C)c2=O)nc2c(C(=O)NC3CC3)cnn12 [I-325] |  | 
> 9.70 | < 50 | < 50 |  |  | CNc1cc(Nc2cccc(N3CCOCC3)c2Cl)nc2c(C(N)=O)cnn12 [I-18] |  | 
8.00 to 9.00 | < 50 | < 50 |  |  | CNc1cc(Nc2cc(C)nc(N3CC[C@@H](OC)C3)c2)nc2c(C(N)=O)cnn12 [I-29] |  | 
> 9.70 |  |  | < 50 | < 50 | CNc1cc(Nc2cccn([C@H]3CC[C@H](OC)CC3)c2=O)nc2c(C(=O)NC[C@@H](C)CO)cnn12 [I-830] |  | 
> 9.70 | < 50 | < 50 |  |  | CNc1cc(Nc2cccc([C@H]3CCCOC3)n2)nc2c(C(=O)NC3CC3)cnn12 [I-549] |  | 
9.00 to 9.70 | < 50 | < 50 |  |  | CNc1cc(Nc2cccn(C3CCN(C)CC3)c2=O)nc2c(C(=O)NCC3(CO)CC3)cnn12 [I-543] |  | 
> 9.70 |  |  | < 50 | < 50 | CNc1cc(Nc2cccn([C@H]3CCCC[C@H]3OC)c2=O)nc2c(C(=O)NCC(C)(C)CO)cnn12 [I-1046] |  | 
9.00 to 9.70 | < 50 | < 50 |  |  | CNc1cc(Nc2cccn([C@H]3CC[C@@](C)(O)CC3)c2=O)nc2c(C(=O)NC3CC3)cnn12 [I-414] |  | 
> 9.70 |  |  | < 50 | < 50 | CNc1cc(Nc2cccn(C3CCCCC3)c2=O)nc2c(C(=O)NC[C@@H](C)CO)cnn12 [I-1119] |  | 
> 9.70 | < 50 | < 50 |  |  | CNc1cc(Nc2cccc([C@H]3CCCCO3)n2)nc2c(C(=O)N[C@@H]3CC[C@@H]3O)cnn12 [I-611] |  | 
8.00 to 9.00 | < 50 | < 50 |  |  | CNc1cc(Nc2c(F)ccn(C(C)C)c2=O)nc2c(C(=O)NC3CC3)cnn12 [I-623] |  | 
9.00 to 9.70 | < 50 | < 50 |  |  | CNc1cc(Nc2cccc3ocnc23)nc2c(C(=O)N[C@H]3CC[C@H]3O)cnn12 [I-771] |  | 
8.00 to 9.00 |  |  | < 50 | < 50 | CNc1cc(Nc2cccn([C@H]3CC[C@](C)(OC)CC3)c2=O)nc2c(C(=O)N[C@@H]3CC[C@H]3OC)cnn12 [I-1106] |  | 
9.00 to 9.70 | < 50 | < 50 |  |  | CCOc1ccc(-n2cccc(Nc3cc(N)n4ncc(C(N)=O)c4n3)c2=O)nn1 [I-33] |  | 

pKd [1] | inhibition at 10 µM (Tyk2 kinase domain (DH1); compound at 10 μM, ATP 10 μM) [%] | inhibition at 10 µM (JAK2 kinase domain (JH1); compound at 10 μM, ATP 10 μM) [%] | inhibition at 10 µM (Tyk2 kinase domain (DH1); 10 μM compound, 10 μM ATP) [%] | inhibition at 10 µM (JAK2 kinase domain (JH1); 10 μM compound, 10 μM ATP) [%] | Compound | Tyk2 JH1% Inhibition @ 10 μM (Tyk2 kinase domain (DH1); compound at 10 μM, ATP 10 μM) | JAK2 JH1% Inhibition @ 10 μM (JAK2 kinase domain (JH1); compound at 10 μM, ATP 10 μM)
> 9.70 | < 50 | < 50 |  |  | CNc1cc(Nc2cccn([C@H]3CCC[C@H](O)C3)c2=O)nc2c(C(=O)NC3CC3)cnn12 [I-760] |  | 
> 9.70 | < 50 | < 50 |  |  | CNc1cc(Nc2cccc([C@H]3CCCOC3)n2)nc2c(C(=O)NC3COCC3O)cnn12 (stereo partly drawn) [I-695, N-(4-hydroytetrahydrofuran-3-yl)-7-(methylamino)-5-((6-((R)-tetrahydro-2H-pyran-3-yl)pyridin-2-yl)amino)pyrazolo[1,5-a]pyrimidine-3-carboxamide] |  | 
8.00 to 9.00 |  |  | < 50 | < 50 | CNc1cc(Nc2cccc(-c3cn(C)nc3F)n2)nc2c(C(=O)N[C@@H]3CC[C@@H]3O)cnn12 [I-949] |  | 
> 9.70 |  |  | < 50 | < 50 | CNc1cc(Nc2cccn([C@H]3CC[C@]4(CCCO4)CC3)c2=O)nc2c(C(=O)NC3CC3)cnn12 [I-1109] |  | 
8.00 to 9.00 | > 90 | > 90 |  |  | Nc1cc(Nc2cccnc2OC(F)(F)F)nc2c(C(=O)NC3CC3)cnn12 [I-113, 7-amino-N-cyclopropyl-5-((2-(trifluoromethoxy)pyridin-3-yl)amino)pyrazolo[1,5-a]pyrimidine-3-carboxamide] |  | 
9.00 to 9.70 | < 50 | < 50 |  |  | CNc1cc(Nc2cc(Cl)cn(-c3cnn(C4CC4)c3C)c2=O)nc2c(C(=O)NC3CCC3)cnn12 [I-181] |  | 
> 9.70 | < 50 | < 50 |  |  | CNc1cc(Nc2cccnc2OC(CO)CO)nc2c(C(=O)NC3CCC3)cnn12 [I-201] |  | 
9.00 to 9.70 | < 50 | < 50 |  |  | CNc1cc(Nc2cccc(C3CCCOC3)n2)nc2c(C(=O)NC3CC3)cnn12 (stereo not drawn) [I-508] |  | 
8.00 to 9.00 |  |  | < 50 | < 50 | CNc1cc(Nc2cccn(-c3oc(C)nc3C)c2=O)nc2c(C(=O)NC3CC3)cnn12 [I-937] |  | 
9.00 to 9.70 | < 50 | < 50 |  |  | CNc1cc(Nc2cccnc2OC2CC2)nc2c(C(=O)N[C@H]3C[C@@H]3O)cnn12 [I-439, 5-((2-cyclopropoxypyridin-3-yl)amino)-N-((1S,2S)-2-hydroxycyclopropyl)-7-(methylamino)pyrazolo[1,5-a]pyrimidine-3-carboxamide] |  | 
9.00 to 9.70 | < 50 | < 50 |  |  | CNc1cc(Nc2cccn(CCOC3CC3)c2=O)nc2c(C(=O)N[C@@H]3CC[C@@H]3O)cnn12 [I-473] |  | 
> 9.70 | < 50 | < 50 |  |  | CNc1cc(Nc2cccn(-c3ccc(C4CC4)nn3)c2=O)nc2c(C(=O)NC3CC3)cnn12 [I-241] |  | 
8.00 to 9.00 |  |  | < 50 | < 50 | CNc1cc(Nc2cccnc2OC)nc2c(C(=O)N[C@@H]3CC[C@]3(C)O)cnn12 [I-1016, N-((1R,2S)-2-hydroxy-2-methylcyclobutyl)-5-((2-methoxypyridin-3-yl)amino)-7-(methylamino)pyrazolo[1,5-a]pyrimidine-3-carboxamide] |  | 
9.00 to 9.70 | < 50 | < 50 |  |  | CCOc1ccc(-n2cccc(Nc3cc(NC)n4ncc(C(=O)NC5CC5)c4n3)c2=O)nn1 [I-118] |  | 
< 8.00 | < 50 | < 50 |  |  | Cc1cc(Nc2cc(N)n3ncc(C(N)=O)c3n2)cc(N2CCCC2)n1 [I-28] |  | 
9.00 to 9.70 | < 50 | < 50 |  |  | CNc1cc(Nc2cccn(-c3ccccn3)c2=O)nc2c(C(=O)NCC3(CO)CC3)cnn12 [I-684] |  | 
> 9.70 | < 50 | < 50 |  |  | CNc1cc(Nc2cccn(-c3cnn(C)c3)c2=O)nc2c(C(=O)NC[C@H](C)CO)cnn12 [I-668] |  | 
9.00 to 9.70 | < 50 | < 50 |  |  | CNc1cc(Nc2cccn(-c3nn(C)c(C)c3C)c2=O)nc2c(C(=O)N[C@@H]3C[C@@H]3F)cnn12 [I-505] |  | 
> 9.70 |  |  | < 50 | < 50 | CNc1cc(Nc2cccn([C@H]3CCC[C@@H](OC)C3)c2=O)nc2c(C(=O)N[C@@H]3CC[C@H]3O)cnn12 [I-1123] |  | 
8.00 to 9.00 |  |  | < 50 | < 50 | CNc1cc(Nc2cccn([C@@H]3CCCC[C@@H]3OC)c2=O)nc2c(C(=O)N[C@@H]3C[C@@H]3F)cnn12 [I-915] |  | 
> 9.70 |  |  | < 50 | < 50 | CNc1cc(Nc2cccn([C@@H]3CC[C@@H]3O)c2=O)nc2c(C(=O)NC3CC3)cnn12 [I-1104] |  | 
9.00 to 9.70 |  |  |  |  | CNc1cc(Nc2cccn([C@@H]3CCCOC3)c2=O)nc2c(C(=O)N[C@H]3CCC[C@H](O)C3)cnn12 [I-734] | A (percent inhibition at 10 μM lower than 50) | A (percent inhibition at 10 μM lower than 50)

Compound | pKd [1] | inhibition at 10 µM (Tyk2 kinase domain (DH1); compound at 10 μM, ATP 10 μM) [%] | inhibition at 10 µM (JAK2 kinase domain (JH1); compound at 10 μM, ATP 10 μM) [%] | inhibition at 10 µM (Tyk2 kinase domain (DH1); 10 μM compound, 10 μM ATP) [%] | inhibition at 10 µM (JAK2 kinase domain (JH1); 10 μM compound, 10 μM ATP) [%] | Tyk2 JH1% Inhibition @ 10 μM (Tyk2 kinase domain (DH1); compound at 10 μM, ATP 10 μM) | JAK2 JH1% Inhibition @ 10 μM (JAK2 kinase domain (JH1); compound at 10 μM, ATP 10 μM)
CNc1cc(Nc2cccn([C@@H]3CCCC[C@@H]3OC)c2=O)nc2c(C(=O)NCC3(CO)CC3)cnn12 [I-991] | 8.00 to 9.00 |  |  | < 50 | < 50 |  | 
